Assay results taken from patent US20210045385A1, “PYRIDAZINONE-SUBSTITUTED KETOXIMES AS HERBICIDES” (FMC Corporation, priority 2018, published 2021).

Columns and labels:
Assay type in all cases: in vivo
[1] = system: rice (Oryza sativa); assay: Test B flooded paddy test, visual plant response rating; conditions: 250 g ai/ha, Flood, applied to paddy water, 2-leaf stage, evaluated after 13 to 15 days
In short: (§1)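 Plants were raised to the 2-leaf stage, then pots were flooded to 3 cm above the soil and test compound was applied directly into the paddy water. Water depth was held for the whole test; after 13 to 15 days in a greenhouse, responses were scored visually against controls.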

[2] = system: barnyardgrass (Echinochloa crus-galli); assay: as above; conditions: 250 g ai/ha, Flood, applied to paddy water, 2-leaf stage, evaluated after 13 to 15 days
In short: as §1

[3] = system: sedge, umbrella (small-flower umbrella sedge, Cyperus difformis); assay: as above; conditions: 250 g ai/ha, Flood, applied to paddy water, 2-leaf stage, evaluated after 13 to 15 days
In short: as §1

[4] = system: ducksalad (Heteranhera limosa); assay: as above; conditions: 250 g ai/ha, Flood, applied to paddy water, 2-leaf stage, evaluated after 13 to 15 days
In short: as §1

[5] = system: kochia (Kochia scoparia); assay: Test A preemergence, visual plant response rating; conditions: for Kochia plant response rating: 125 g ai/ha, preemergence, 0 to 100 scale, 0 no effect, 100 complete control; for Kochia plant response rating (0 to 100 scale): 500 g ai/ha Preemergence, approx. 10 days
In short: (§2)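 Formulated in a non-phytotoxic solvent mixture including surfactant, each test chemical was sprayed onto the soil surface after sowing, or onto seedlings 2 to 10 cm high. Roughly 10 days later, plants were compared with untreated controls and rated for injury from 0 (no effect) to 100 (complete control).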

[6] = system: foxtail, giant (giant foxtail, Setaria faberii); assay: Test A preemergence, visual plant response rating; conditions: for Foxtail, Giant plant response rating: 125 g ai/ha, preemergence, 0 to 100 scale, 0 no effect, 100 complete control; for Foxtail, Giant plant response rating (0 to 100 scale): 500 g ai/ha Preemergence, approx. 10 days
In short: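 Greenhouse pot test in loam–sand soil mix: compound in a surfactant-containing non-phytotoxic solvent applied preemergence (directed soil spray) or postemergence (one- to two-leaf plants, 2–10 cm). Injury scored visually after ~10 days, 0–100.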

[7] = system: barnyardgrass (Echinochloa crus-galli); assay: Test A preemergence, visual plant response rating; conditions: for Barnyardgrass plant response rating: 125 g ai/ha, preemergence, 0 to 100 scale, 0 no effect, 100 complete control; for Barnyardgrass plant response rating (0 to 100 scale): 500 g ai/ha Preemergence, approx. 10 days
In short: as §2

[8] = system: pigweed (Amaranthus retroflexus); assay: Test A preemergence, visual plant response rating; conditions: for Pigweed plant response rating: 125 g ai/ha, preemergence, 0 to 100 scale, 0 no effect, 100 complete control; for Pigweed plant response rating (0 to 100 scale): 500 g ai/ha Preemergence, approx. 10 days
In short: as §2

[9] = system: Italian ryegrass (Lolium multiflorum); assay: Test A preemergence, visual plant response rating; conditions: for Ryegrass, Italian plant response rating: 125 g ai/ha, preemergence, 0 to 100 scale, 0 no effect, 100 complete control; for Ryegrass, Italian plant response rating (0 to 100 scale): 500 g ai/ha Preemergence, approx. 10 days
In short: as §2

[10] = system: ragweed (common ragweed, Ambrosia elatior); assay: Test A preemergence, visual plant response rating; conditions: for Ragweed plant response rating: 125 g ai/ha, preemergence, 0 to 100 scale, 0 no effect, 100 complete control; for Ragweed plant response rating (0 to 100 scale): 500 g ai/ha Preemergence, approx. 10 days
In short: as §2

[11] = system: kochia (Kochia scoparia); assay: Test A postemergence, visual plant response rating; conditions: for Kochia plant response rating (0 to 100 scale): 500 g ai/ha, postemergence, 0 is no effect, 100 is complete control; for Kochia plant response rating: Postemergence, 125 g ai/ha, 0 to 100 scale (0 no effect, 100 complete control)
In short: as §2

[12] = system: galium (catchweed bedstraw, Galium aparine); assay: Test A postemergence, visual plant response rating; conditions: for Galium plant response rating (0 to 100 scale): 500 g ai/ha, postemergence, 0 is no effect, 100 is complete control; for Galium plant response rating: Postemergence, 125 g ai/ha, 0 to 100 scale (0 no effect, 100 complete control)
In short: as §2

[13] = system: blackgrass (Alopecurus myosuroides); assay: Test A postemergence, visual plant response rating; conditions: for Blackgrass plant response rating (0 to 100 scale): 500 g ai/ha, postemergence, 0 is no effect, 100 is complete control; for Blackgrass plant response rating: Postemergence, 125 g ai/ha, 0 to 100 scale (0 no effect, 100 complete control)
In short: as §2

[14] = system: wheat (Triticum aestivum); assay: Test A postemergence, visual plant response rating; conditions: for Wheat plant response rating: 0 to 100 scale (0 no effect, 100 complete control)
In short: as §2

[15] = system: foxtail, giant (giant foxtail, Setaria faberii); assay: Test A postemergence, visual plant response rating; conditions: for Foxtail, Giant plant response rating (0 to 100 scale): 500 g ai/ha, postemergence, 0 is no effect, 100 is complete control; for Foxtail, Giant plant response rating: Postemergence, 125 g ai/ha, 0 to 100 scale (0 no effect, 100 complete control)
In short: as §2

[16] = system: barnyardgrass (Echinochloa crus-galli); assay: Test A postemergence, visual plant response rating; conditions: for Barnyardgrass plant response rating (0 to 100 scale): 500 g ai/ha, postemergence, 0 is no effect, 100 is complete control; for Barnyardgrass plant response rating: Postemergence, 125 g ai/ha, 0 to 100 scale (0 no effect, 100 complete control)
In short: as §2

[17] = system: pigweed (Amaranthus retroflexus); assay: Test A postemergence, visual plant response rating; conditions: for Pigweed plant response rating (0 to 100 scale): 500 g ai/ha, postemergence, 0 is no effect, 100 is complete control; for Pigweed plant response rating: Postemergence, 125 g ai/ha, 0 to 100 scale (0 no effect, 100 complete control)
In short: as §2

[18] = system: Italian ryegrass (Lolium multiflorum); assay: Test A postemergence, visual plant response rating
In short: as §2

[19] = system: ragweed (common ragweed, Ambrosia elatior); assay: Test A postemergence, visual plant response rating; conditions: for Ragweed plant response rating (0 to 100 scale): 500 g ai/ha, postemergence, 0 is no effect, 100 is complete control; for Ragweed plant response rating: Postemergence, 125 g ai/ha, 0 to 100 scale (0 no effect, 100 complete control)
In short: as §2

[20] = system: corn (Zea mays); assay: Test A postemergence, visual plant response rating; conditions: for Corn plant response rating (0 to 100 scale): 500 g ai/ha, postemergence, 0 is no effect, 100 is complete control; for Corn plant response rating: Postemergence, 125 g ai/ha, 0 to 100 scale (0 no effect, 100 complete control)
In short: as §2

[21] = 500 g ai/ha, postemergence, 0 is no effect, 100 is complete control

Structure (SMILES) | Plant response rating, Rice (0 to 100 scale, 0 is no effect, 100 is complete control) [1] | Plant response rating, Barnyardgrass (0 to 100 scale, 0 is no effect, 100 is complete control) [2] | Plant response rating, Sedge, Umbrella (0 to 100 scale, 0 is no effect, 100 is complete control) [3] | Plant response rating, Ducksalad (0 to 100 scale, 0 is no effect, 100 is complete control) [4] | Kochia plant response rating [5] | Kochia plant response rating (0 to 100 scale) [5] | Foxtail, Giant plant response rating [6] | Foxtail, Giant plant response rating (0 to 100 scale) [6] | Barnyardgrass plant response rating [7] | Barnyardgrass plant response rating (0 to 100 scale) [7] | Pigweed plant response rating [8] | Pigweed plant response rating (0 to 100 scale) [8] | Ryegrass, Italian plant response rating [9] | Ryegrass, Italian plant response rating (0 to 100 scale) [9] | Ragweed plant response rating [10] | Ragweed plant response rating (0 to 100 scale) [10] | Kochia plant response rating (0 to 100 scale) [11] | Kochia plant response rating [11] | Galium plant response rating (0 to 100 scale) [12] | Galium plant response rating [12] | also measured
C#CCO/N=C(\c1c(O)c(C)nn(C)c1=O)c1cccc2ccccc12 [Compound 83, 5-hydroxy-2,6-dimethyl-4-[(Z)-[(2-propyn-1-yloxy)imino]-1-naphthalenylmethyl]-3(2H)-pyridazinone] | 0 | 0 | 70 | 75 | 20 | 100 | 90 | 100 | 80 | 100 | 100 | 100 | 80 | 100 | 100 | 100 | 90 | 80 | 100 | 90 | Blackgrass plant response rating (0 to 100 scale) [13]: 100; Blackgrass plant response rating [13]: 90; Wheat plant response rating (0 to 100 scale) [14, 21]: 60; Wheat plant response rating ([14]; Postemergence, 125 g ai/ha): 40; Foxtail, Giant plant response rating (0 to 100 scale) [15]: 80; Foxtail, Giant plant response rating [15]: 70; Barnyardgrass plant response rating (0 to 100 scale) [16]: 80; Barnyardgrass plant response rating [16]: 60; Pigweed plant response rating (0 to 100 scale) [17]: 90; Pigweed plant response rating [17]: 80; Ryegrass, Italian plant response rating (0 to 100 scale) [18, 21]: 100; Ryegrass, Italian plant response rating ([18]; Postemergence, 125 g ai/ha, 0 to 100 scale (0 no effect, 100 complete control)): 90; Ragweed plant response rating (0 to 100 scale) [19]: 100; Ragweed plant response rating [19]: 90; Corn plant response rating (0 to 100 scale) [20]: 40; Corn plant response rating [20]: 20
CON=C(c1ccc(C)s1)c1c(O)c(C)nn(C)c1=O (mixture of isomers) [Compound 144] | 0 | 0 | 0 | 0 | 0 | 0 | 0 | 0 | 0 | 0 | 0 | 0 | 0 | 0 | 0 | 0 | 0 | 0 | 30 | 0 | Blackgrass plant response rating (0 to 100 scale) [13]: 0; Blackgrass plant response rating [13]: 0; Wheat plant response rating ([14]; Postemergence, 500 g ai/ha): 0; Wheat plant response rating (0 to 100 scale) ([14]; Postemergence, approx. 10 days): 0; Foxtail, Giant plant response rating (0 to 100 scale) [15]: 0; Foxtail, Giant plant response rating [15]: 0; Barnyardgrass plant response rating (0 to 100 scale) [16]: 0; Barnyardgrass plant response rating [16]: 0; Pigweed plant response rating (0 to 100 scale) [17]: 10; Pigweed plant response rating [17]: 0; Ryegrass, Italian plant response rating (0 to 100 scale) [18, 21]: 0; Ryegrass, Italian plant response rating (0 to 100 scale) ([18]; Postemergence, rate not given, approx. 10 days): 0; Ragweed plant response rating (0 to 100 scale) [19]: 30; Ragweed plant response rating [19]: 0; Corn plant response rating (0 to 100 scale) [20]: 0; Corn plant response rating [20]: 0
